# Measured values from patent publication US11684675B2, “Dimeric collagen hybridizing peptides and methods of using” (University of Utah Research Foundation, priority 2015, dated 2023).
# Tests used:
# [1] = CD refolding (triple helix assembly) at 10° C. monitored at 225 nm; format: physicochemical; conditions: for folded after 2 hours: CD refolding
# Method: Conversion was assumed to be at 100% after 96 h incubation at 4° C., and max trimer concentration was measured via CD ellipticity at 10° C. Samples were preheated to 80° C. in the sample cuvette for 10 min before being transferred directly to the sample holder held at a constant 10° C. Sample measurement began immediately. Initial time point for analysis was determined by measuring time for a blank (lx PBS) to thermally equilibrate in these conditions.
# For all peptides, conversion was assumed to be at 100% after 96 h incubation at 4° C., and max trimer concentration was measured via CD ellipticity at 10° C. Samples were preheated to 80° C. in the sample cuvette for 10 min before being transferred directly to the sample holder held at a constant 10° C. Sample measurement began immediately. Initial time point for analysis was determined by measuring time for a blank (1×PBS) to thermally equilibrate in these conditions. This was set as the zero point for all peptides, as the large jump in CD due to temperature makes the initial jump irresolvable. (A) Rate of assembly of CHP 9 (60, 30, and 15 μM), over 2 h, monitored at 225 nm. (B) Rate of assembly of CHP 9d (30, 15, and 7.5 μM, corresponding to same CHP strand concentration from panel A), over 2 h, monitored at 225 nm. (C) Rate of assembly of CHP 6 (150 and 75 μM), over 2 h, monitored at 225 nm.
# FIGS. 12A and 12B show CD refolding at 10° C. of CMPs monitored at 225 nm. CMPs were heated to 80° C. for 5 minutes before being placed into the CD and initial 2 min of monitored data was removed to eliminate thermal transition. Signal was normalized to that of a fully folded peptide.
# (§1) Circular Dichroism: Circular Dichroism (CD) was measured for all peptides at 225 nm. Melting curves were taken on peptides between 10 and 80° C. at a heating rate of 0.5° C./min, with pauses at each 1° C. Refolding experiments were performed after peptide solutions were incubated at 4° C. for at least 12 hours. Concentrations were normalized to strand concentration.
# [2] = CD thermal denaturation and cooling gradient 90 to 4° C., refolding; format: physicochemical; conditions: cooling 1° C./min from 90° C.
# Method: (§2) FIGS. 5A, 5B, 5C, and 5D show the thermal denaturation of fully assembled CHPs and subsequent cooling to initial temperature. Samples were heated at 1° C./min from their initial temperature final temperature of 90° C. Sample was then cooled at 1° C./min to the starting temperature. (A) Thermal denaturation and partial reassembly of CHP CF-6d (150 μM) monitored at 225 nm. Sample was measured from 4° C. to 90° C. (B) Thermal denaturation and partial reassembly of CHP […] (75 μM, corresponding to 150 μM strand concentration) monitored at 225 nm. Sample was measured from 4° C. to 90° C. (C) Thermal denaturation and partial reassembly of CHP CF-9 (150 μM) monitored at 225 nm. Sample was measured from 10° C. to 90° C. (D) Thermal denaturation and partial reassembly of CHP CF-9d (75 μM, corresponding to 150 μM strand concentration) monitored at 225 nm. Sample was measured from 10° C. to 90° C.
# The dimeric CHPs can also form their triple helices much more readily during slow cooling when compared to their monomeric counterparts. After thermal denaturation and heating to 90° C., the peptides were exposed to a decreasing thermal gradient from 90 to 4° C. (1° C./min) during which the ellipticity at 225 nm was monitored. During these cooling gradients, the dimeric CHPs began refolding at a higher temperature than the monomers with the same number of repeat units. […]
# [3] = Triple helix melting point (Tm) by circular dichroism at 225 nm; format: physicochemical; conditions: for melting point: Example 3; for Tm (° C.): triple helix melting
# Method: as §2
# FIGS. 11A and 11B show the First Derivative of mean residue ellipticity (MRE) at 225 nm in CD. […] There is no significant change in melting point between the monomeric and dimeric forms of the same peptide.
# as §1
# [4] = test system: crosslinked gelatin films; experiment: Binding of CF-labelled CHPs to crosslinked gelatin films at 37° C. with and without preheating; parameters: species or system porcine; conditions: 20 μM, 37° C. overnight, PBS wash 20 h, FIG. 6C
# Method: FIGS. 3A and 3B show the affinity of CHPs to gelatin films as monitored by fluorescence of conjugated CF fluorophore (492 ex, 533 em). (A) Fluorescence of CHPs bound to crosslinked gelatin after incubation at 37° C. overnight with no workup. (B) Fluorescence of CHPs remaining in crosslinked gelatin after incubation at 37° C. overnight without preheating, followed by washing with 1×PBS at 37° C. (20 h).
# (A) Fraction of peptide remaining in a crosslinked gelatin film after 17 h at 25° C. (10 total washes). Values are normalized to fluorescence remaining in wells after 6 washes at 4° C. (>95% removal of CHPs 9r, 6r, and 5r). All washes performed in 1×PBS. (B) CHPs (15 μM) premixed into 10% porcine gelatin and preheated to 80° C. (10 min) before being added to a 96 well plate. Excess CHP-gelatin mixture was removed, then the premix was incubated at 4° C. for 2 hours. Wells were washed at 4° C., 5 times (>95% removal of CHPs 9r, 6r, and 5r). Wells were then washed for 2 hours (6 washes total) at 25° C. to monitor CHP remaining in the well. (C) Fluorescence of CHPs remaining in crosslinked gelatin after incubation at 37° C. overnight without preheating, followed by washing with 1×PBS at 37° C. (20 h). (D) Fluorescence of CHPs remaining in crosslinked gelatin after incubation at 37° C. overnight (80° C. preheating, 10 min), followed by washing with 1×PBS at 37° C. (20 h).
# Dimeric CHPs were assessed for their ability to bind to collagen strands in crosslinked gelatin films. CHP solutions (20 μM in PBS) were added directly to the crosslinked gelatin films. For heated experiments, CHPs were preheated to 80° C. for 10 minutes before addition. Peptides were allowed to fully equilibrate with the gel at 37° C. overnight before being exposed to repeated washes (4×, PBS) at 37° C. to fully remove any non-specifically bound peptide and to determine binding level at body temperature. To measure retention, peptides were bound as previously described, but were subsequently washed with PBS 37° C. (5×1 h, 1×12 h) to measure retention within the gelatin films. […] Additionally, after a period of 20 hours, higher level of the dimeric CHP remained in the gelatin compared to the monomeric CHP.
# A major limitation of the use of CHP in vivo, is the requirement of the triple helix to be fully disassembled before being injected. […] For this test, peptide solutions were allowed to warm to room temperature before being added (50 μL, 20 μM) to previously prepared crosslinked gelatin films. Solutions were then incubated at 37° C. overnight before removing the solution. Wells were washed at 37° C. with PBS (20 h) to determine binding. Preheated samples were prepared and incubated in the same way, but with preheating (80° C., 10 min) before being added to the crosslinked gelatin wells.
substance,measurement,setting,value
(GPO)6 [compound 6],refolding after two hours of incubation,"[1]; 10° C., same strand concentration",did not reach its half maximal refolding after two hours
same,folded after 2 hours,[1]; 75 μM,28%
same,temperature below the reported Tm until which no significant refolding was observed,[2],approximately 10 °C
same,melting point,[3],37 °C
same,Tm (° C.),[3]; Table 1,37 (SEQ ID NO: 59) ° C.
same,Tm (° C.),[3]; Table 2,37 (SEQ ID NO: 59) ° C.
same,binding to gelatin wells at 37° C. without preheating,[4],do not have a strong enough affinity to the gelatin to bind effectively at physiologic temperature
(GPO)9 [compound 9],folded after 2 hours,[1]; 60 μM,40%
same,temperature below the reported Tm until which no significant refolding was observed,[2],~15 °C
same,melting point,[3],68 °C
same,Tm (° C.),[3]; Table 1,68 (SEQ ID NO: 56) ° C.
same,Tm (° C.),[3]; Table 2,68 (SEQ ID NO: 56) ° C.
same,binding to gelatin wells at 37° C. without preheating,[4],unable to bind significantly without preheating
